In patent US8815569B2, “Methods for preserving and/or storing cells having a nitrilase or nitrile hydratase activity” (priority 2003, dated 2014):

Biological target: T1, E. coli-expressed nitrilase (Alcaligenes faecalis, UniProt P20960)
T1 construct: expressed in transfected cells; host or cells: Escherichia coli TG10 (pDHE1650 pAgro4 pHSG575), whole-cell suspension
Experiment: Nitrilase activity test of the cell suspension after storage with aldehyde
Assay type: cell-based, Escherichia coli
Method: The Escherichia coli strain (TG10 pDHE1650 pAgro4 pHSG575) was fermented in a 20 l bioreactor. The reactor, containing a 10 l working volume, was inoculated with 200 ml of preliminary culture from shaker flasks. The preliminary culture medium corresponds to the main culture medium.
The fermentation is carried out at a temperature of 37° C. The gassing is regulated between 8-30 l/min, while the rotation speed of the stirrer is regulated at […], in order to maintain a pO2 of not less than 20%. After a fermentation period of 1 h, the culture is induced with IPTG (0.15 mM). 18.5 g of rhamnose feed solution are then added. After the initially introduced quantity of glycerol has been consumed, glycerol is then fed in continuously. After a fermentation period of 44 h, cell suspensions of 50 g DBM/l and 50 to 60 ku/l are obtained. The cells are cooled down to 4° C.
50 μl of cell suspension are pipetted into 880 μl of sodium potassium phosphate buffer (10 mM) and the whole is equilibrated at 30° C. The reaction is started by adding 20 μl of methanolic mandelonitrile solution (12%). After 10 min, the enzyme reaction is stopped by adding 50 μl of 1M HC. The cell mass is centrifuged off and the concentration of mandelic acid in the supernatant is measured by means of HPLC (ODS Hypersil 100*2.0 mm, mobile phase: 75% H3PO4 (14.8 mM)/25% methanol; flow rate: 0.5 ml/min; injection volume: 2 μl; column temperature: 40° C.; detection: 210 nm; mandelic acid retention time: 0.9 min).
(§1) 14 h after the end of the fermentation, the cell suspension was adjusted to a pH of 6.0, 6.6 or 7.2 with NaOH or H2SO4 and then treated with benzaldehyde. The samples were stored at 4° C. or 22° C. Enzyme activity was determined at 0.6, 3.6 and 6.6 days after the end of the fermentation.
as §1, with “6.0, 6.6.” for “6.0, 6.6”, “with 2-chlorobenzaldehyde.” for “with benzaldehyde.”, “C. The enzyme” for “C. Enzyme”

[1] = storage at 4° C., pH 6.0, 1 mM aldehyde, storage period 0.6 d
[2] = storage at 4° C., pH 6.0, 1 mM aldehyde, storage period 3.6 d
[3] = storage at 4° C., pH 6.0, 1 mM aldehyde, storage period 6.6 d
[4] = storage at 4° C., pH 6.0, 5 mM aldehyde, storage period 0.6 d
[5] = storage at 4° C., pH 6.0, 5 mM aldehyde, storage period 3.6 d
[6] = storage at 4° C., pH 6.0, 5 mM aldehyde, storage period 6.6 d
[7] = storage at 4° C., pH 6.0, 10 mM aldehyde, storage period 0.6 d
[8] = storage at 4° C., pH 6.0, 10 mM aldehyde, storage period 3.6 d
[9] = storage at 4° C., pH 6.0, 10 mM aldehyde, storage period 6.6 d
[10] = storage at 4° C., pH 6.6, 1 mM aldehyde, storage period 0.6 d
[11] = storage at 4° C., pH 6.6, 1 mM aldehyde, storage period 3.6 d
[12] = storage at 4° C., pH 6.6, 1 mM aldehyde, storage period 6.6 d
[13] = storage at 4° C., pH 6.6, 5 mM aldehyde, storage period 0.6 d
[14] = storage at 4° C., pH 6.6, 5 mM aldehyde, storage period 3.6 d
[15] = storage at 4° C., pH 6.6, 5 mM aldehyde, storage period 6.6 d
[16] = storage at 4° C., pH 6.6, 10 mM aldehyde, storage period 0.6 d
[17] = storage at 4° C., pH 6.6, 10 mM aldehyde, storage period 3.6 d
[18] = storage at 4° C., pH 6.6, 10 mM aldehyde, storage period 6.6 d
[19] = storage at 4° C., pH 7.2, 1 mM aldehyde, storage period 0.6 d
[20] = storage at 4° C., pH 7.2, 1 mM aldehyde, storage period 3.6 d
[21] = storage at 4° C., pH 7.2, 1 mM aldehyde, storage period 6.6 d
[22] = storage at 4° C., pH 7.2, 5 mM aldehyde, storage period 0.6 d
[23] = storage at 4° C., pH 7.2, 5 mM aldehyde, storage period 3.6 d
[24] = storage at 4° C., pH 7.2, 5 mM aldehyde, storage period 6.6 d
[25] = storage at 4° C., pH 7.2, 10 mM aldehyde, storage period 0.6 d
[26] = storage at 4° C., pH 7.2, 10 mM aldehyde, storage period 3.6 d
[27] = storage at 4° C., pH 7.2, 10 mM aldehyde, storage period 6.6 d
[28] = storage at 22° C., pH 6.0, 1 mM aldehyde, storage period 0.6 d
[29] = storage at 22° C., pH 6.0, 1 mM aldehyde, storage period 3.6 d
[30] = storage at 22° C., pH 6.0, 1 mM aldehyde, storage period 6.6 d
[31] = storage at 22° C., pH 6.0, 5 mM aldehyde, storage period 0.6 d
[32] = storage at 22° C., pH 6.0, 5 mM aldehyde, storage period 3.6 d
[33] = storage at 22° C., pH 6.0, 5 mM aldehyde, storage period 6.6 d
[34] = storage at 22° C., pH 6.0, 10 mM aldehyde, storage period 0.6 d
[35] = storage at 22° C., pH 6.0, 10 mM aldehyde, storage period 3.6 d
[36] = storage at 22° C., pH 6.0, 10 mM aldehyde, storage period 6.6 d
[37] = storage at 22° C., pH 6.6, 1 mM aldehyde, storage period 0.6 d
[38] = storage at 22° C., pH 6.6, 1 mM aldehyde, storage period 3.6 d
[39] = storage at 22° C., pH 6.6, 1 mM aldehyde, storage period 6.6 d
[40] = storage at 22° C., pH 6.6, 5 mM aldehyde, storage period 0.6 d
[41] = storage at 22° C., pH 6.6, 5 mM aldehyde, storage period 3.6 d
[42] = storage at 22° C., pH 6.6, 5 mM aldehyde, storage period 6.6 d
[43] = storage at 22° C., pH 6.6, 10 mM aldehyde, storage period 0.6 d
[44] = storage at 22° C., pH 6.6, 10 mM aldehyde, storage period 3.6 d
[45] = storage at 22° C., pH 6.6, 10 mM aldehyde, storage period 6.6 d
[46] = storage at 22° C., pH 7.2, 1 mM aldehyde, storage period 0.6 d
[47] = storage at 22° C., pH 7.2, 1 mM aldehyde, storage period 3.6 d
[48] = storage at 22° C., pH 7.2, 1 mM aldehyde, storage period 6.6 d
[49] = storage at 22° C., pH 7.2, 5 mM aldehyde, storage period 0.6 d
[50] = storage at 22° C., pH 7.2, 5 mM aldehyde, storage period 3.6 d
[51] = storage at 22° C., pH 7.2, 5 mM aldehyde, storage period 6.6 d
[52] = storage at 22° C., pH 7.2, 10 mM aldehyde, storage period 0.6 d
[53] = storage at 22° C., pH 7.2, 10 mM aldehyde, storage period 3.6 d
[54] = storage at 22° C., pH 7.2, 10 mM aldehyde, storage period 6.6 d

T1 sequence (P20960 whole entry Q122E/S243P/E312D/I323T/Q324R/P330Q/H331G/T335K/A336I/P338S/V341I/Q343H/T344P): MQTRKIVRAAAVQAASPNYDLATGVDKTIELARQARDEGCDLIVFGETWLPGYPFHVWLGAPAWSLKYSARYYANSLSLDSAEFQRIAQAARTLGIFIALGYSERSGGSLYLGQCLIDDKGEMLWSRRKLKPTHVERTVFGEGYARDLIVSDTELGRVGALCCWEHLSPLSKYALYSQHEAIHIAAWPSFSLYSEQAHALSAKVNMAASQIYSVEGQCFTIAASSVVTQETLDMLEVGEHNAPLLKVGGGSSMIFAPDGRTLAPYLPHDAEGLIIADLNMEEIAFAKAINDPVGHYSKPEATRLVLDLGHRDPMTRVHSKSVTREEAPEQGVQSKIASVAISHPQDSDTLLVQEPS

O=Cc1ccccc1Cl [2-chlorobenzaldehyde]
Activity in kU/l [1]: 52.4 kU/l
Activity in kU/l [2]: 53.5 kU/l
Activity in kU/l [3]: 56.9 kU/l
Activity in kU/l [4]: 52.5 kU/l
Activity in kU/l [5]: 55.6 kU/l
Activity in kU/l [6]: 53.8 kU/l
Activity in kU/l [7]: 53.5 kU/l
Activity in kU/l [8]: 55.7 kU/l
Activity in kU/l [9]: 47.6 kU/l
Activity in kU/l [10]: 48.8 kU/l
Activity in kU/l [11]: 55.1 kU/l
Activity in kU/l [12]: 54.7 kU/l
Activity in kU/l [13]: 50.6 kU/l
Activity in kU/l [14]: 56.3 kU/l
Activity in kU/l [15]: 53.6 kU/l
Activity in kU/l [16]: 47.4 kU/l
Activity in kU/l [17]: 55.0 kU/l
Activity in kU/l [18]: 58.5 kU/l
Activity in kU/l [19]: 51.3 kU/l
Activity in kU/l [20]: 48.3 kU/l
Activity in kU/l [21]: 45.2 kU/l
Activity in kU/l [22]: 53.3 kU/l
Activity in kU/l [23]: 51.2 kU/l
Activity in kU/l [24]: 48.1 kU/l
Activity in kU/l [25]: 48.3 kU/l
Activity in kU/l [26]: 51.0 kU/l
Activity in kU/l [27]: 49.9 kU/l
Activity in kU/l [28]: 52.4 kU/l
Activity in kU/l [29]: 53.8 kU/l
Activity in kU/l [30]: 54.5 kU/l
Activity in kU/l [31]: 52.5 kU/l
Activity in kU/l [32]: 55.0 kU/l
Activity in kU/l [33]: 59.1 kU/l
Activity in kU/l [34]: 53.5 kU/l
Activity in kU/l [35]: 55.7 kU/l
Activity in kU/l [36]: 52.4 kU/l
Activity in kU/l [37]: 48.8 kU/l
Activity in kU/l [38]: 55.0 kU/l
Activity in kU/l [39]: 57.2 kU/l
Activity in kU/l [40]: 50.6 kU/l
Activity in kU/l [41]: 56.7 kU/l
Activity in kU/l [42]: 55.5 kU/l
Activity in kU/l [43]: 47.4 kU/l
Activity in kU/l [44]: 56.2 kU/l
Activity in kU/l [45]: 58.6 kU/l
Activity in kU/l [46]: 51.3 kU/l
Activity in kU/l [47]: 52.8 kU/l
Activity in kU/l [48]: 53.2 kU/l
Activity in kU/l [49]: 53.3 kU/l
Activity in kU/l [50]: 51.4 kU/l
Activity in kU/l [51]: 50.1 kU/l
Activity in kU/l [52]: 48.3 kU/l
Activity in kU/l [53]: 52.9 kU/l
Activity in kU/l [54]: 54.0 kU/l

O=Cc1ccccc1 [benzaldehyde]
Activity in kU/l [1]: 55.1 kU/l
Activity in kU/l [2]: 49.9 kU/l
Activity in kU/l [3]: 48.3 kU/l
Activity in kU/l [4]: 51.8 kU/l
Activity in kU/l [5]: 52.3 kU/l
Activity in kU/l [6]: 53.0 kU/l
Activity in kU/l [7]: 51.3 kU/l
Activity in kU/l [8]: 51.5 kU/l
Activity in kU/l [9]: 50.2 kU/l
Activity in kU/l [10]: 53.2 kU/l
Activity in kU/l [11]: 52.3 kU/l
Activity in kU/l [12]: 52.5 kU/l
Activity in kU/l [13]: 47.1 kU/l
Activity in kU/l [14]: 52.0 kU/l
Activity in kU/l [15]: 55.7 kU/l
Activity in kU/l [16]: 51.3 kU/l
Activity in kU/l [17]: 55.5 kU/l
Activity in kU/l [18]: 51.9 kU/l
Activity in kU/l [19]: 55.8 kU/l
Activity in kU/l [20]: 46.8 kU/l
Activity in kU/l [21]: 47.5 kU/l
Activity in kU/l [22]: 47.1 kU/l
Activity in kU/l [23]: 48.3 kU/l
Activity in kU/l [24]: 50.7 kU/l
Activity in kU/l [25]: 53.8 kU/l
Activity in kU/l [26]: 51.2 kU/l
Activity in kU/l [27]: 49.2 kU/l
Activity in kU/l [28]: 55.1 kU/l
Activity in kU/l [29]: 50.6 kU/l
Activity in kU/l [30]: 51.0 kU/l
Activity in kU/l [31]: 51.8 kU/l
Activity in kU/l [32]: 51.5 kU/l
Activity in kU/l [33]: 54.9 kU/l
Activity in kU/l [34]: 51.3 kU/l
Activity in kU/l [35]: 53.0 kU/l
Activity in kU/l [36]: 49.2 kU/l
Activity in kU/l [37]: 53.2 kU/l
Activity in kU/l [38]: 53.0 kU/l
Activity in kU/l [39]: 53.1 kU/l
Activity in kU/l [40]: 47.1 kU/l
Activity in kU/l [41]: 54.3 kU/l
Activity in kU/l [42]: 58.0 kU/l
Activity in kU/l [43]: 51.3 kU/l
Activity in kU/l [44]: 49.4 kU/l
Activity in kU/l [45]: 55.4 kU/l
Activity in kU/l [46]: 55.8 kU/l
Activity in kU/l [47]: 50.4 kU/l
Activity in kU/l [48]: 48.7 kU/l
Activity in kU/l [49]: 47.1 kU/l
Activity in kU/l [50]: 51.7 kU/l
Activity in kU/l [51]: 52.9 kU/l
Activity in kU/l [52]: 53.8 kU/l
Activity in kU/l [53]: 52.7 kU/l
Activity in kU/l [54]: 51.3 kU/l
